From article PMC4626104, “Inhibition on Proteasome β1 Subunit Might Contribute to the Anti-Cancer Effects of Fangchinoline in Human Prostate Cancer Cells” (PLoS ONE, 2015)

Assays:
[1] = target: T1, recombinant human proteasome β1 subunit (Homo sapiens, UniProt P28072); test: Surface plasmon resonance (Biacore) binding assay; settings: Biacore, 25°C, 1:1 Langmuir model
T1 construct: His-Tag; made in house; host or cells: Escherichia coli
T1 sequence (P28072 1-239): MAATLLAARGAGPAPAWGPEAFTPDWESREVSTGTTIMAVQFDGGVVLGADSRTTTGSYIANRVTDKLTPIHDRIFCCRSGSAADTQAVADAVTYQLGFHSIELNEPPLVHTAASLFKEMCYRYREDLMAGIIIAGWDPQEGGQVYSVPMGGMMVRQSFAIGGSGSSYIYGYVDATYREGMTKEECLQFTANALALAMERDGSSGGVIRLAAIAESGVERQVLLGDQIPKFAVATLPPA
Experimental: The recombinant human proteasome β1 subunit, product of PSMB6 gene, was expressed as His-Tag proteins using Escherichia coli, and then purified by affinity chromatography as reported in our previous study. The binding affinities of fangchinoline or tetrandrine to recombinant proteasome catalytic β1 subunit, were assayed in vitro using an Biacore 3000 instrument (Biacore AB, Rapsgatan 7, S-754 50 Uppsala, Sweden) as reported before. Briefly, recombinant proteasome β1 subunit protein was immobilized on a CM5 sensor chip as ligand in 11624.5 RU with N-ethyl-N’-(3-dimethylaminopropyl) carbodiimide and N-hydroxysuccinimide according to the standard primary amine-coupling procedures, and HBS-EP (10 mM HEPES, 150 mM NaCl, 3 mM EDTA, 0.005% (v/v) surfactant P20, pH 7.4) was used as the running buffer. Equilibration of the baseline was performed by a continuous flow of HBS-EP through the chip surface for 1 to 2 h. Biacore data were collected at 25°C with HBS-EP as the running buffer at a constant flow of 20 μL/min. Fangchinoline or tetradrine was serially diluted into the running buffer to 0, 2.4, 3.43, 4.90, 7.0, 10 and 20 μM. The samples were injected into the channels at a flow rate of 20 μL/min, followed by washing with the running buffer. The binding responses were recorded continuously in response units (RU) at a frequency of 1Hz as sensorgrams and presented as a function of time. The association (k a) and dissociation (k d) rate constants, the equilibrium dissociation constant ( KD=kd/ka ) were determined by analysis of the sensorgram-curves obtained at different concentrations of the compound by use of BIA evaluation software version 3.1 (Biacore) and the 1:1 Langmuir binding fitting model.

PC-3 cells [2] = test: Flow cytometric analysis of cell cycle in PC-3 cells; format: cell-based, human; settings: 24 h
Experimental: (§1) The induction of cell cycle arrest and apoptosis by fangchinoline in PC-3 cells was observed by using flow cytometric analysis as described in our previous reports. Briefly, for flow cytometry analysis of cell cycle, cells were collected after treatment, washed with PBS and then fixed with 70% ethanol at 4°C for overnight. After PBS washes, cells were re-suspended in staining buffer (10 mg/mL RNase A and […] propidium iodide in cold PBS) for 30 min in dark at room temperature and then analyzed using FACSCalibur Flow Cytometer. For flow cytometric analysis of apoptosis, Alexa Fluor 488 Annexin V & PI /Dead cell Apoptosis Kit (Invitrogen) was used. Cells were collected after treatment, washed with PBS and then resuspended in binding buffer and then incubated with Annexin V-FITC and propidium iodide for 15 min in dark at room temperature. Then, flow cytometric analysis was conducted and data analysis was performed with CellQuest software.

PC-3 cells [3] = test: Flow cytometric analysis of apoptosis (Annexin V/PI) in PC-3 cells; format: cell-based, human; settings: 24 h
Experimental: as §1

[4] = test system: PSMB6 knockdown PC-3 cells; test: MTT assay in PC-3 cells with knockdown of proteasome β1 subunit (PSMB6 siRNA); format: cell-based, human; settings: 72 h treatment, vs negative control cells
Experimental: The inhibitive effects of fangchinoline on proliferation of PC-3 cells or LnCap cells was observed by checking cell viability of cells using MTT assay as described before. Briefly, cells were seeded in 96-well plates at a density of 5×10^4 cells/mL for PC-3 cell and 4×10^4 cells/mL for LnCap cells. After overnight culture, the media were changed into fresh media containing various concentrations of fangchinoline or 0.1% DMSO (solvent control) for 24, 48 h or 72 h. Cell viability was evaluated by measuring the mitochondrial-dependent conversion of the yellow tetrazolium salt MTT to purple formazan crystals by metabolic active cells. The optical density (proportional to the number of live cells) was assessed with a Microplate Reader Bio-Rad 550 at 570 nm. IC50 value (half-maximal inhibitory concentration) was calculated by the Logit method.
Validated siRNAs for PSMB6 (Sigma-Aldrich) were transfected into PC-3 cells by using Lipofectamine RNAiMAX (Invitrogen) according to the manufacturer’s protocol. Scrambled negative control siRNAs (Sigma-Aldrich) were used as negative control. Expression levels of PSMB6 (proteasome β1 subunit) in wide type cells, PSMB6 knockdown cells (cells treated with siRNAs for PSMB6), negative control cells (cells transfected with scrambled negative control siRNAs) were checked using Western blotting assay. […]

SMILES: COc1ccc2cc1Oc1ccc(cc1)C[C@H]1c3cc(c(OC)cc3CCN1C)Oc1c(O)c(OC)cc3c1[C@H](C2)N(C)CC3 [fangchinoline]
- Dissociation (k d) [1]: 0.0353 S^-1
- Kd ([1]; read-out: Equilibrium dissociation (K D)): 4.68 µM
- kon ([1]; pH 7.4, read-out: Association (k a)): 7550 M⁻¹ s⁻¹
- Percentage (%) of cells in G0/G1 phase (PC-3 cells [2]; 5 μM): 60.17±1.49%
- Percentage (%) of cells in G2/M phase (PC-3 cells [2]; 5 μM): 11.21±2.45 %
- Percentage (%) of cells in S phase (PC-3 cells [2]; 5 μM): 28.62±2.31%
- Percentage (%) of cells in G0/G1 phase (PC-3 cells [2]; 8 μM): 64.25±1.57 %
- Percentage (%) of cells in G2/M phase (PC-3 cells [2]; 8 μM): 11.99±2.23 %
- Percentage (%) of cells in S phase (PC-3 cells [2]; 8 μM): 23.76±2.77%
- Percentage (%) of cells in G0/G1 phase (PC-3 cells [2]; 12 μM): 63.03±0.73 %
- Percentage (%) of cells in G2/M phase (PC-3 cells [2]; 12 μM): 11.59±1.99 %
- Percentage (%) of cells in S phase (PC-3 cells [2]; 12 μM): 25.37±1.75 %
- Percentage (%) of cells in G0/G1 phase (PC-3 cells [2]; 18 μM): 67.63±3.34 %
- Percentage (%) of cells in G2/M phase (PC-3 cells [2]; 18 μM): 8.88±2.91%
- Percentage (%) of cells in S phase (PC-3 cells [2]; 18 μM): 23.48±2.14 %
- Percentage (%) of cells in G0/G1 phase (PC-3 cells [2]; 27 μM): 75.16±1.95 %
- Percentage (%) of cells in G2/M phase (PC-3 cells [2]; 27 μM): 8.65±1.81%
- Percentage (%) of cells in S phase (PC-3 cells [2]; 27 μM): 16.19±0.63 %
- Percentage (%) of cells in G0/G1 phase (PC-3 cells [2]; 40 μM): 80.14±1.55 %
- Percentage (%) of cells in G2/M phase (PC-3 cells [2]; 40 μM): 7.99±1.43%
- Percentage (%) of cells in S phase (PC-3 cells [2]; 40 μM): 11.88±0.56 %
- Percentage (%) of apoptotic cells (Annexin^+/PI^+) (PC-3 cells [3]; 5 μM): 6.74±1.14 %
- Percentage (%) of apoptotic cells (Annexin^+/PI^+) (PC-3 cells [3]; 8 μM): 10.79±0.51 %
- Percentage (%) of apoptotic cells (Annexin^+/PI^+) (PC-3 cells [3]; 12 μM): 13.53±0.19 %
- Percentage (%) of apoptotic cells (Annexin^+/PI^+) (PC-3 cells [3]; 18 μM): 28.10±5.93 %
- Percentage (%) of apoptotic cells (Annexin^+/PI^+) (PC-3 cells [3]; 27 μM): 37.52±4.04 %
- Percentage (%) of apoptotic cells (Annexin^+/PI^+) (PC-3 cells [3]; 40 μM): 49.77±2.23 %
- Effect of knockdown of proteasome β1 subunit on proliferation inhibition [4]: ameliorated proliferation-inhibiting effects
